Patent US8637043B2, “Compositions useful as ligands for the formyl peptide receptor like 1 receptor and methods of use thereof” (Chemocentryx, Inc., priority 2001, dated 2014)
“And” between values parts separate entries of the source, which are not always exact repeats. Equal values may be shown once. Ends that are not written are not given here.

B1: CKβ8-1(25-116): novel NH2-terminal truncated form of CKβ8-1, SEQ ID NO: 16, human recombinant chemokine (protein, listed as Homo sapiens)
chain: MLWRRKIGPQMTLSHAAGFHATSADCCISYTPRSIPCSLLESYFETNSECSKPGVIFLTKKGRRFCANPSDKQVQVCMRMLKLDTRIKTRKN

Legend:
dendritic cells = assay: Dendritic cell infiltration after intradermal injection in mice (anti-DEC-205 staining); format: in vivo; design: key to Dendritic cell infiltration Score / Infiltration Score: 0 = none, 1 = slight, 2 = mild, 3 = moderate, 4 = severe
Text: The following chemokines were obtained from R&D Systems (Minneapolis, Minn.): vMCK-2, mC10, and GM-CSF. The following peptides were synthesized at Phoenix Pharmaceuticals (San Carlos, Calif.): SHAAYtide (SEQ ID NO:6), several […] MODIFIED peptides of SHAAGtide variant (SEQ ID NO:) (i.e. cyclized using the MPR-Cys linked cyclization), control peptide (SEQ ID NO:33, […]Gin Pro Gly lie Lys Arg Arg Trp Leu Met), randomly conjugated to OVA in either a 1:1 or 1:4 ratio (by MBS coupling method), and conjugated to OVA at the C-terminus (C-term, made by the addition of a cysteine), and SHAAGtide variant (SEQ ID NO:3). In three separate experiments, chemokines or peptides (2 μg or 20 μg in PBS) were injected intradermally into BALB/c or C57BI/6 mice (Jackson Laboratory; Bar Harbor, Me.). In each experiment, one mouse received an injection of PBS only as a negative control. At various times after injection, the mice were euthanized, and the area around the injection site was excised and subjected to immunohistology. Frozen sections were stained with anti-DEC-205 antibody (Bio-Whittaker Molecular Applications; Rockland, Me.) that recognizes a dendritic cell-specific molecule (Kraal et al., 1986). A relative staining number on a scale of […] was assigned to each section (0, none; 1, slight; 2, mild; 3, moderate; 4, severe).

OVA-specific antibody = OVA-specific antibody responses with IFA or alum adjuvant in Rhesus monkeys (Example 18); format: in vivo
Protocol: First, 96-well U-bottom plastic dishes were coated overnight with 1 μg ovalbumin (OVA) in 100 μl PBS per well. The next day, the dishes were rinsed with PBS, blocked with PBS containing 5% fetal bovine serum (FBS), and rinsed with PBS again. Plasma samples from experimental animals (see below) were diluted 10^2- to 10^5-fold and added to the dishes for 2 hours, after which the dishes were again rinsed with PBS. The dishes were then incubated with biotinylated goat anti-monkey IgG detection antibodies, then rinsed with PBS and incubated with streptavidin-linked horseradish peroxidase (SA-HRP). After a final rinsing with PBS, the HRP substrate 2,2′-Azinobis [3-ethylbenzothiazoline-6-sulfonic acid]-diammonium salt was added.
Different types of immune responses can be induced in mammals by varying parameters such as the dose of antigen, the formulation, the route of administration, and the type of adjuvant.

OVA-specific IgG = assay: Adjuvant activity, anti-OVA antibodies in Rhesus monkeys (Example 16); format: in vivo; settings: effectiveness as adjuvant
Protocol: First, 96-well U-bottom plastic dishes were coated overnight with 1 μg ovalbumin (OVA) in 100 μl PBS per well. The next day, the dishes were rinsed with PBS, blocked with PBS containing 5% fetal bovine serum (FBS), and rinsed with PBS again. Plasma samples from experimental animals (see below) were diluted 10^2- to 10^5-fold and added to the dishes for 2 hours, after which the dishes were again rinsed with PBS. The dishes were then incubated with biotinylated goat anti-monkey IgG detection antibodies, then rinsed with PBS and incubated with streptavidin-linked horseradish peroxidase (SA-HRP). After a final rinsing with PBS, the HRP substrate 2,2′-Azinobis [3-ethylbenzothiazoline-6-sulfonic acid]-diammonium salt was added. Color development was measured with an ELISA plate reader at 405 nm, and optical density (OD) units were converted to arbitrary “antibody units,” where a unit is defined as the inverse of the plasma dilution that produces 50% of the maximum response from a standard curve obtained by serial dilution of an ascites collected from OVA-injected mice and containing OVA-specific antibodies.
Since the SHAAYtide (SEQ ID NO:6) and the chemokines mC10 and vMCK-2 recruited APCs, including dendritic cells, to the site of injection, these polypeptides were tested for their ability to act as immunization adjuvants to augment the immune response to a co-injected foreign antigen. […]

native L1.2 cells = assay: Calcium flux in parental L1.2 cells or cells transfected with other chemokine receptors; format: cell-based, murine; settings: pariental cells or cells transfected with other chemokine receptors
Text: The functional activities of CKβ8-1 (25-116) were investigated in human FPRL1-L1.2 transfectants and in native L1.2 cells. Stable expression of formyl peptide-like receptor 1 (FPRL1) in L.1.2 cell was obtained as follows. Full length cDNA encoding FPRL1 was cloned, using the polymerase chain reaction (PCR), from genomic DNA isolated from undifferentiated HL-60 cells. The polymerase chain reaction product was cloned into pcDNA3.1 (Invitrogen, Carlsbad, Calif.) using standard molecular cloning procedures and completely sequenced to confirm identity. Twenty micrograms of the FPRL1/pcDNA3.1 construct were linearized by digestion with Bsm1 (New England Biolabs, Beverly, Mass.) and used to transfect the murine B cell line L1.2 as follows. Twenty five million cells were washed twice and resuspended in 0.8 ml of PBS. The cells were incubated for 10 min at room temperature with the linearized FPRL/pcDNA3.1 construct DNA and transferred to a 0.4-cm cuvette, and a single electroporation pulse was applied at 250 V, 960 μF. Electroporated cells were incubated for 10 min at room temperature and transferred to culture at 37° C. in RPMI supplemented with 10% FCS. […] After 2-3 weeks under drug selection, stable geneticin-resistant FPLR1 expressing cells were assessed for their ability to mobilize Ca^++ in response to SHAAGtide or CKbeta 8-1 at concentrations of 1 to 1000 nM. […]

Row | Molecule | Dendritic cell infiltration Score (dendritic cells; BALBc mice, 2 μg, 6 hours, listed as SHAAYtide (SEQ ID NO: 6)) | Dendritic cell infiltration Score (dendritic cells; BALBc mice, 2 μg, 30 hours, listed as SHAAYtide (SEQ ID NO: 6)) | Dendritic cell infiltration Score (dendritic cells; BALBc mice, 20 μg, 6 hours, listed as SHAAYtide (SEQ ID NO: 6)) | Dendritic cell infiltration Score (dendritic cells; C57B1/6 mice, 2 μg dose, 6 hours, 0 none, 1 slight, 2 mild, 3 moderate, 4 severe, one animal per line) | Dendritic cell infiltration Score (dendritic cells; C57B1/6 mice, 2 μg dose, 30 hours) | Dendritic cell infiltration Score (dendritic cells; C57B1/6 mice, 2 μg dose, 51 hours) | infiltration of DEC-205-labeled cells (dendritic cells; summary of Tables 15, 16 and 17) | effect of co-administration on the OVA with IFA response (OVA-specific antibody; IFA adjuvant) | effect of co-administration on the IgG response induced by OVA plus alum (OVA-specific antibody; alum adjuvant) | Notes: adjuvant (OVA-specific IgG) | induced calcium release (native L1.2 cells)
1 | MLWRRKIGPQMTLSHAAY [SEQ ID NO: 6] | 2 and 3 | 3 and 2 | 2 and 3 | 1 | 0 | 0 | excellent infiltration | did not diminish the OVA with IFA response | dramatically reduced the IgG response induced by OVA plus alum | effective | 
2 | B1 |  |  |  |  |  |  |  |  |  |  | not observed
